Assay results published in patent US4942163A, “1(2H)-isoquinolinones and 1-isoquinolineamines as cancer chemotherapeutic agents” (E. I. Du Pont de Nemours and Company, priority 1989, dated 1990).
Values after ≈ are worked out from the molar mass of the structure shown.

Columns and labels:
L1210 murine leukemia = L1210 murine leukemia test (survival of tumor-bearing mice); assay type: in vivo, mouse; details: i.p. once daily for nine days from day 1
Description: The L1210 tumor line originated in 1948 as a lymphocytic leukemia in a female DBA/2 mouse after the skin was treated with 0.2% 20-methylcholanthrene in ethyl ether. The tumor line is maintained by serial passage in female DBA/2 mice. On day 0, female CDF1 mice weighing 18-22 g are inoculated with 1×10^5 L1210 leukemia cells harvested from the ascites of DBA/2 mice. The mice are randomized into groups of six each and the test compounds and vehicle control are administered intraperitoneally once daily for nine consecutive days beginning on day 1. A ≥20% decrease in body weight on day 5 is considered an indication of toxicity. The acceptable control mean survival time is 8-11 days. Results are expressed as a percentage of the mean survival time of the vehicle-treated control group according to the formula: [formula] Mice which survive for 30 days are considered cured and are not included in the calculation of the mean survival time. The NCI criteria for activity are used. A compound is considered to have moderate activity against L1210 leukemia if it has a % T/C ≥125%, and it is considered to have good activity if it has a % T/C ≥150%.

P388 murine leukemia = P388 murine leukemia test (survival of tumor-bearing mice); assay type: in vivo, mouse; details: i.p. once daily for nine days from day 1
Description: The P388 tumor line originated in 1955 as a lymphocytic leukemia in a female DBA/2 mouse after the skin was painted with 3-methylcholanthrene. The tumor line is maintained by serial passage in female DBA/2 mice. On day 0, female CDF1 mice weighing 18-22 g are inoculated intraperitoneally with 1×10^6 P388 leukemia cells harvested from the ascites of DBA/2 mice. The mice are randomized into groups of six each and the test compounds and vehicle control are administered intraperitoneally once daily for nine consecutive days beginning day 1. A decrease in body weight on day 5 that is ≥20% is considered an indication of toxicity. The acceptable control mean survival time is 9-14 days. Results are expressed as a percentage of the mean survival time of the vehicle-treated control group according to the formula: [formula] Mice which survive for 30 days are considered cured and are not included in the calculation of the mean survival time. The NCI criteria for activity are used. A compound is considered to have moderate activity against P388 leukemia if it has a % T/C ≥125%, and it is considered to have good activity if it has a % T/C ≥150%.

[1] = system: LOX human amelanotic melanoma; assay: LOX human amelanotic melanoma xenograft test in athymic nude mice; assay type: in vivo; details: for % T/C (median survival time vs vehicle control): i.p. every fourth day, three injections
From the text: The LOX human amelanotic melanoma tumor line was obtained from Dr. Oystein Fodstad, Department of Biochemistry, Norwegian Radium Hospital, Oslo, Norway. The line is maintained by serial passage in athymic NCR-NU mice. On day 0, athymic nude mice, all of one sex weighing a minimum of 18 g for males and 17 g for females, are inoculated intraperitoneally with 1×10^6 LOX melanoma cells harvested from the ascites of athymic mice. The mice are randomized into groups of six each and the test compounds and vehicle control are administered intraperitoneally every fourth day beginning day 1 for a total of three injections. Animals are evaluated for toxicity on day 10. A decrease in body weight ≥20% is considered an indication of toxicity. The acceptable control median survival time is 17-24 days. Results are expressed as a percentage of the median survival time of the vehicle-treated control group according to the formula: [formula]
The NCI criteria for activity are used. A compound is considered to have moderate activity against LOX melanoma if it has a % T/C ≥140%, and it is considered to have good activity if it has a % T/C ≥200%.

[2] = system: RPMI-7272 human melanoma cells; assay: In vitro RPMI-7272 human melanoma cell growth inhibition; assay type: cell-based; details: RPMI-7272 melanoma, inhibition of cell doublings by 50%, 72 h, read-out: ID50 (the source's name)
Description: The compounds of this invention were also tested for their ability to inhibit the growth of human melanoma RPMI-7272 cells in vitro. Human melanoma RPMI-7272 cells (Quinn et al. [J. Natl. Cancer Inst. 59, 301-305 (1977)]) were propagated in RPMI-1640 medium supplemented with 10 mM Tricine (pH 7.8), 10 mM HEPES (pH 7.3), 0.075% sodium bicarbonate, and 10% (vol/vol) heat-inactivated (56° C., 30 minutes) fetal bovine serum in a 95% air:5% CO2 humidified atmosphere. Cells were seeded at 3×10^5 per 35 mm plate to initiate growth inhibition studies. Cultures to receive growth medium only (control cultures) were set up in quadruplicate; cultures to receive varying concentrations of compounds were set up at one dish per dose of compound. Twenty-four hours post-seeding, duplicate control cell cultures were trypsinized and cells were counted using a Coulter Counter (day 1 control counts). At this time, varying concentrations of test compounds, from 100 to 0.00001 μg/mL were added to cultures and growth medium only was added to control cultures. Seventy-two hours after the addition of compound, cells were trypsinized and counted. The numbers of cell population doublings (day 4) in the presence or absence of compound were calculated. The ID50 represents the dose of compound (in μg/mL) required to inhibit the number of cell doublings by 50%. A compound is considered to have in vitro activity against RPMI-7272 melanoma if it has an ID50 ≤1 μg/mL. The number of population doublings of control cultures during 72 hours was between 3 and 4. […] Dilutions to 1 mg/mL in complete growth medium were made, followed by stock preparations of 100 and 30 μg/mL in complete growth medium. Serial ten-fold dilutions in complete medium were formulated from the 100 and 30 μ g/mL stocks, respectively, and added to cultures.

B16 murine melanoma = B16 murine melanoma test (survival of tumor-bearing mice); assay type: in vivo, mouse; details: i.p. once daily for nine days from day 1
Description: The B16 tumor line arose spontaneously in 1954 on the skin at the base of the ear of a C57BL mouse. The tumor line is maintained by serial passage in female C57BL mice. On day 0, female B6C3F1 mice are inoculated intraperitoneally with 0.5 mL of a 10% tumor brei. This brei is prepared by homogenizing fresh B16 tumors, grown subcutaneously in C57BL mice, in cold physiological saline. Mice are randomized in groups of ten each, with 20 animals being in the control group. The test compounds and vehicle control are administered intraperitoneally once daily for nine consecutive days beginning on day 1. A ≥20% decrease in body weight on day 5 is considered an indication of toxicity. The acceptable mean control survival time is 14-22 days. Results are expressed as a percentage of the mean survival time of the vehicle-treated control group according to the formula: [formula] Mice which survive 90 days are considered cured and are not included in the calculation of the mean survival time. The NCI criteria for activity are used. A compound is considered to have moderate activity against B16 melanoma if it has a % T/C ≥125%, and it is considered to have good activity if it has a % T/C ≥150%.

SMILES	IC50 [2]	other results
O=c1[nH]c(-c2cccc3ccccc23)cc2ccccc12 [Example 1, 3-(1-Naphthalenyl)-1(2H)-isoquinolinone]		% T/C (mean survival time vs vehicle control) (L1210 murine leukemia; dose 100 mg/kg): 148%; % T/C (mean survival time vs vehicle control) (P388 murine leukemia; dose 200 mg/kg): 161%; Cures (number of survivors/total at 60 days) ([1]; dose 400 mg/kg): 1/6; % T/C (median survival time vs vehicle control) ([1]; dose 400 mg/kg): 168%
O=c1[nH]c(-c2cccc3ccccc23)cc2ccc(Cl)cc12 [Example 2, 7-chloro-3-(1-naphthalenyl)-1(2H)-isoquinolinone]	0.005 µg/mL (≈ 0.0164 µM)	% T/C (mean survival time vs vehicle control) (P388 murine leukemia; dose 100 mg/kg): 138%
Cc1ccc2cc(-c3cccc4ccccc34)[nH]c(=O)c2c1 [Example 3, 7-Methyl-3-(1-naphthalenyl)-1(2H)-isoquinolinone]	0.0072 µg/mL (≈ 0.0252 µM)	% T/C (mean survival time vs vehicle control) (L1210 murine leukemia; dose 200 mg/kg): 133%; % T/C (mean survival time vs vehicle control) (P388 murine leukemia; dose 100 mg/kg): 152%; % T/C (mean survival time vs vehicle control) (B16 murine melanoma; dose 100 mg/kg): 149%; Cures (number of survivors/total at 60 days) ([1]; dose 240 mg/kg): 2/6; % T/C (median survival time vs vehicle control) ([1]; dose 240 mg/kg): 271%
CN(C)c1ccc2cc(-c3cccc4ccccc34)[nH]c(=O)c2c1.Cl [Example 4, 7-(Dimethylamino)-3-(1-naphthalenyl)-1(2H)-isoquinolinone hydrochloride]	0.001 µg/mL	% T/C (mean survival time vs vehicle control) (L1210 murine leukemia; dose 6 mg/kg): 156%
Cc1cccc2cc(-c3cccc4ccccc34)[nH]c(=O)c12 [Example 15]	0.53 µg/mL (≈ 1.86 µM)	
Cc1cccc2c(N)nc(-c3cccc4ccccc34)cc12 [Example 18]	0.95 µg/mL (≈ 3.34 µM)	
Nc1nc(-c2cccc3ccccc23)cc2cc(Cl)ccc12 [Example 19]	0.055 µg/mL (≈ 0.18 µM)	
Cc1ccc2c(N)nc(-c3cccc4ccccc34)cc2c1 [Example 20, 6-Methyl-3-(1-naphthalenyl)-1-isoquinolineamine]	0.00077 µg/mL (≈ 0.00271 µM)	% T/C (mean survival time vs vehicle control) (B16 murine melanoma; dose 6 mg/kg): 130%
Nc1nc(-c2cccc3ccccc23)cc2ccc(Cl)cc12 [Example 21, 7-Chloro-3-(1-naphthalenyl)-1-isoquinolineamine]	0.0094 µg/mL (≈ 0.0308 µM)	% T/C (mean survival time vs vehicle control) (B16 murine melanoma; dose 100 mg/kg): 138%
Nc1nc(-c2cccc3ccccc23)cc2cccc(Cl)c12 [Example 23]	0.07 µg/mL (≈ 0.23 µM)	
Cc1ccc2cc(-c3cccc4ccccc34)nc(N3CCN(C)CC3)c2c1 [Example 31, 7-Methyl-1-(4-methyl-1-piperazinyl)-3-(1-naphthalenyl)-isoquinoline]		% T/C (mean survival time vs vehicle control) (B16 murine melanoma; dose 6 mg/kg): 133%
Cc1ccc2cc(-c3cccc4ccccc34)nc(N(C)CCN(C)C)c2c1 [Example 40, N,N,N'-Trimethyl-N'-(7-methyl-3-(1-naphthalenyl)-1-isoquinolinyl)-1,2-ethanediamine]		% T/C (mean survival time vs vehicle control) (B16 murine melanoma; dose 0.75 mg/kg): 135%

Second part, led by results:

IC50 [2]	SMILES	other results
0.055 µg/mL	C[N+](C)(C)c1ccc2cc(-c3cccc4ccccc34)[nH]c(=O)c2c1 [Example 5]	
0.29 µg/mL (≈ 1.02 µM)	Cc1cccc2c(=O)[nH]c(-c3cccc4ccccc34)cc12 [Example 7]	
0.0016 µg/mL (≈ 0.00561 µM)	Cc1ccc2c(=O)[nH]c(-c3cccc4ccccc34)cc2c1 [Example 9]	
0.22 µg/mL (≈ 0.814 µM)	Nc1nc(-c2cccc3ccccc23)cc2ccccc12 [Example 16]	
0.0016 µg/mL (≈ 0.00563 µM)	Cc1ccc2cc(-c3cccc4ccccc34)nc(N)c2c1 [Example 22]	
0.05 µg/mL (≈ 0.176 µM)	Cc1cccc2cc(-c3cccc4ccccc34)nc(N)c12 [Example 24]	
